Columns and labels:
[1] = system: BHK-21 cells; assay: Cytopathic effect (cell morphology, proliferation, trypan blue) in non-infected BHK-21 cells; assay type: cell-based, hamster; conditions: 24 h
Procedure: To define HAP compound non-toxic concentrations for initial studies, non-infected BHK-21 cells were incubated with compounds at four different concentrations for 24 h (25 μM, 50 μM, 100 μM, and 200 μM), and the cytopathic effects were evaluated by analysis of cell morphology and proliferation changes. […] 1c, 1j, 1k and 4a, and 7b. The reference comp.
The cytopathic effect of the compounds was estimated by phase contrast microscopy and standard trypan blue staining, and the cells were counted using an automatic cell counter (Invitrogen). BHK-21 and HepG2.2.15 cells were incubated for 24 h with the studied compounds at […] (25, 50, 100, 150 and 200 μM) and the cell morphology was controlled under microscope to evaluate cytopathic effects (Table 1, the highest non-toxic concentration).

[2] = target: HBV capsid assembly (full-length HBc protein, genotype D1) (Hepatitis B virus genotype D subtype ayw, UniProt P03146, A80I/T33N/V74G); assay: HBV capsid assembly in SFV1/HBc-infected HBc-producing BHK-21 cells, native agarose gel anti-HBc immunoblot; assay type: cell-based; conditions: HBc-producing BHK-21 cells; for Effect on capsid production / mobility in initial test: 1–50 μM, 24 h (Figure 5); for Effect on Capsid Assembly / Effect on Capsid Assembly, Starting Concentration: 24 h, native agarose immunoblot; for Type of effect on HBV capsid assembly in dose-dependent experiments: 0.1–50 µM, 24 h (Figure 6)
Chain of HBV capsid assembly (full-length HBc protein, genotype D1) (P03146 whole entry A80I/T33N/V74G, looked up): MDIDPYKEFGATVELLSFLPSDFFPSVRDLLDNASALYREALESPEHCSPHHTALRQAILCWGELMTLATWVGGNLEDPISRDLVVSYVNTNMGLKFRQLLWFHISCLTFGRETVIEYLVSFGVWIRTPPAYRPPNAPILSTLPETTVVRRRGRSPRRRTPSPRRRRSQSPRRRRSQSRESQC

[3] = MTT viability assay in BHK-21 cells; assay type: cell-based, hamster; conditions: hamster, 200 µM, read-out: Cell viability, percentage from untreated cells
Procedure: BHK-21 cells were incubated with different concentrations (6.125, 12.25, 25, 50, 100, and 200 µM) of the respective compounds and the cell viability was calculated as a percentage from untreated cells (100%) (Figure 7). In general, the results confirmed the morphological observation of relatively low cytotoxicity for tested compounds at concentrations below 100 µM.
Additionally, cell viability was determined by tetrazolium salt-based assay using the Vybrant MTT Cell Proliferation kit (Thermo Fisher Scientific, Waltham, MA, USA) or more sensitive CCK-8 kit (Abcam). First, the cell numbers and protocol were optimized for BHK-21 and HepG2.2.15 cells, as indicated in the MTT assay kit or CCK-8 reagent manufacturer’s protocol, and standard curves with OD values were created and evaluated.
In order to evaluate the toxicity of selected HAP compounds in the medium, 1.3 × 10^4 BHK-21 were seeded per well in 96-well plates and treated with the studied compounds for 24 h at concentrations 6.125; 12.25; 25; 50; 100; and 200 μM. Control cells without HAP compounds and MTT-free cell media were included in the experiments. The MTT test was performed according to the full protocol version (Thermo Fisher Scientific).

[4] = system: HepG2.2.15 cells; assay: MTT viability test in HepG2.2.15 cells (TC50); assay type: cell-based, human; conditions: 48 h, 0–200 µM
Procedure: In order to compare the cytotoxicity of compounds 1d and 1e in HBV producing HepG2.2.15 cells, the toxic concentrations (TC50 values) were estimated (Figure 9B,C).
In order to calculate the median of the toxic concentration (TC50) of the compounds, 1.33 × 10^5 HepG2.2.15 cells per well were seeded into a 24-well plate. After 24 h, the cells were treated with the test compounds at different concentrations (0, 50, 100, 150, 200 μM) and incubated for 48 h at 37 °C. All experiments were carried out in three identical repeats and the coefficient of variation and standard deviation were calculated from at least two independent experiments.
The percent inhibition at each compound concentration was calculated by normalization of the signals to the signals from non-treated HepG2.2.15 cells. […] Data points and error bars represent the means and standard deviations from at least two independent experiments, respectively. Comparisons between data groups were performed using the unpaired t test, with p values < 0.05 being considered statistically significant.

[5] = system: HBV; conditions: HepG2.2.15 cells; for HBV DNA, % from control: 20 µM, six days, secreted virion DNA
[6] = system: HBV; assay: microbe, parasite or virus in culture; conditions: Hepatitis B virus, HepG2.2.15, 144 h, read-out: EC50 (50% reduction of HBV DNA), HepG2.2.15 cells, six days, 0–20 µM
[7] = non-infected BHK-21 cells, no noticeable cytopathic effect

SMILES	melting point [°C]	Effect on capsid production / mobility in initial test [2]	Effect on Capsid Assembly [2]	further results
CC1=C(C(=O)Nc2ccccn2)C(c2ccc(F)cc2Cl)N=C(c2ncc(F)cc2F)N1 (stereo not shown) (hydrate or solvate) [1h]	152 to 153	–	–	–
COC(=O)C1=C(C[N+]2(C)CCOCC2)NC(c2ncc(F)cc2F)=NC1c1ccc(F)cc1Cl (stereo not shown) [3c]	181 to 182	did not induce a significant effect on the capsid mobility	No effect	The Highest Non-Toxic Concentration [1, 7]: 150 µM
CCOC(=O)C1=C(C)NC(c2nccs2)=NC1c1ccc(F)cc1 (stereo not shown) [1j]	–	misfolding of the HBV capsid	HBc accumulation, aggregates/or incorrect capsid structures	Type of effect on HBV capsid assembly in dose-dependent experiments [2]: dose-dependent HBc products accumulation; Effect on Capsid Assembly, Starting Concentration [2]: 5 µM
CC1=C(C(=O)OCCOC(C)C)C(c2ccc(F)cc2Cl)N=C(c2ncc(F)cc2F)N1 (stereo not shown) (hydrate or solvate) [1e]	156 to 157	–	–	–
COC(=O)C1=C(C[N+]2(C)CCCC2)NC(c2ncc(F)cc2F)=NC1c1ccc(F)cc1Cl (stereo not shown) [3b]	167 to 168	did not induce a significant effect on the capsid mobility	No effect	–
CCOC(=O)C1=C(C)NC(c2ncc(F)cc2F)=NC1c1ccc(F)cc1 (stereo not shown) [1c]	–	inhibitory effect	Capsid signal decrease	Effect on Capsid Assembly, Starting Concentration [2]: 5 µM
CCOC(=O)c1c(C)nc(-c2nccs2)nc1-c1ccc(F)cc1 [4b]	–	did not induce a significant effect on the capsid mobility	No effect	–
COC(=O)C1=C(C[N+]23CCC(CC2)C(O)C3)NC(c2ncc(F)cc2F)=NC1c1ccc(F)cc1Cl (stereo not shown) [3d]	–	inhibitory effect	Capsid signal decrease, possible changes in NS packaging	The Highest Non-Toxic Concentration ([1]; hamster): 100 µM
CCOC(=O)C1=C(C)NC(c2nccs2)=CC1c1ccc(F)cc1Cl (stereo not shown) [compound 6]	–	did not induce a significant effect on the capsid mobility	No effect	–
CCOCCOC(=O)C1=C(C)NC(c2ncc(F)cc2F)=NC1c1ccc(F)cc1Cl (stereo not shown) (hydrate or solvate) [1d]	143 to 144	–	–	–
COc1ccccc1NC(=O)C1=C(C)NC(c2ncc(F)cc2F)=NC1c1ccc(F)cc1Cl (stereo not shown) (hydrate or solvate) [1i]	149 to 150	–	–	–
CC1=C(C(=O)OCCOC(C)C)C(c2ccc(F)cc2Cl)N=C(c2ncc(F)cc2F)N1 (stereo not shown) [1e]	–	misfolding of the HBV capsid	Dose dependent capsid signal decrease	The Highest Non-Toxic Concentration [1, 7]: 100 µM; Effect on capsids at lower concentrations ([2]; 5 μM and 10 μM): capsid stabilization and accumulation; Effect on capsids at higher concentrations ([2]; 20 μM and 50 μM): capsids were almost non-detectable; Type of effect on HBV capsid assembly in dose-dependent experiments [2]: dose-dependent HBc signal decrease; Effect on Capsid Assembly, Starting Concentration [2]: 10 µM; viability at 24 h, 200 µM [3]: > 90%; TC50 [4]: 98 µM; SI (TC50/EC50) [5]: 11; HBV DNA, % from control [5]: 6.3%; Decrease in the amount of HBV virion release compared with control ([5]; Figure 8): ≤ 93.5%; EC50 [6]: 9.16 µM
CCCOCCOC(=O)C1=C(C)NC(c2ncc(F)cc2F)=NC1c1ccc(F)cc1Cl (stereo not shown) [1f]	–	misfolding of the HBV capsid	HBc accumulation, aggregates/or incorrect capsid structures	The Highest Non-Toxic Concentration [1, 7]: 100 µM; Type of effect on HBV capsid assembly in dose-dependent experiments [2]: dose-dependent HBc products accumulation; Effect on Capsid Assembly, Starting Concentration [2]: 10 µM; viability at 24 h, 200 µM [3]: > 90%; HBV DNA, % from control [5]: 52.5%
CCCOCCOC(=O)C1=C(C)NC(c2ncc(F)cc2F)=NC1c1ccc(F)cc1Cl (stereo not shown) (hydrate or solvate) [1f]	149 to 150	–	–	–
